Where two headings read alike, the source gives them in different places.
Assays:
[1] = system: octopamine-sensitive adenylate cyclase (firefly lantern octopamine receptor); assay: Octopamine-sensitive adenylate cyclase activation, firefly light organ broken cell preparation; assay type: biochemical, firefly (Photinus pyralis); conditions: for Ka ratio / Vmax: FIG. 1, formamidines; for Vmax: % of octopamine
[2] = system: tobacco hornworms (Manducca sexta); assay: In vivo leaf test (feeding on sprayed tomato leaves)
[3] = system: Manducca eggs; assay: Ovacidal test (eggs dipped in drug solutions); assay type: in vivo, Manducca sexta
Experimental: In some cases, test agents were tested for ovacidal activity by dipping groups of 10-50 Manducca eggs in drug solutions for 60 seconds and then determining the percentage of eggs which produced viable larvae. A compound or synergist with active ovacidal activity was one which decreased the percentage of eggs hatched, relative to control.

[4] = Table 1, phenylethylamines, >1 = better than (±)-p-octopamine
[5] = Table 1, phenylethylamines, maximal activation as % of that by (±)-p-octopamine, N.A. = No Activity
[6] = agonist 1 gm/100 ml + PDE Inhibitor IBMX 0.1 g/100 ml
[7] = agonist 1 gm/100 ml, No PDE Inhibitor
[8] = agonist 10^-1 gm/100 ml + PDE Inhibitor IBMX 0.1 g/100 ml
[9] = agonist 10^-1 gm/100 ml, No PDE Inhibitor
[10] = agonist 10^-2 gm/100 ml + PDE Inhibitor IBMX 0.1 g/100 ml
[11] = agonist 10^-2 gm/100 ml, No PDE Inhibitor
[12] = agonist 1 gm/100 ml + IBMX 0.1 g/100 ml
[13] = agonist 10^-1 gm/100 ml + IBMX 0.1 g/100 ml
[14] = agonist 10^-2 gm/100 ml + IBMX 0.1 g/100 ml
[15] = agonist 10^-3 gm/100 ml + PDE Inhibitor IBMX 0.1 g/100 ml
[16] = agonist 10^-3 gm/100 ml, No PDE Inhibitor
[17] = agonist 10^-4 gm/100 ml + PDE Inhibitor IBMX 0.1 g/100 ml
[18] = agonist 10^-4 gm/100 ml, No PDE Inhibitor
[19] = Table 2, clonidines, N.A. = no activity

Q: How did the “Ka^oct /Ka^B ratio” value [1, 4] turn out when CN(C)CC(O)c1ccc(O)cc1 (racemic) [(±)-N,Ndimethyloctopamine] was run?
A: 0.9

Q: And the “Vmax (% OCT)” value [1, 5]?
A: 43 ± 4 % OCT

Q: CNCC(O)c1ccc(O)cc1 (racemic) [(±)-Nmethyloctopamine] was tested. Which “Ka^oct /Ka^B ratio” value [1, 4] did it give?
A: 1.8

Q: What about the “Vmax (% OCT)” value [1, 5] of the same molecule?
A: 108 ± 10 % OCT

Q: What about the “% Leaf Remaining” value [2, 6] of the same molecule?
A: 90%

Q: And the “% Leaf Remaining” value [2, 7]?
A: 30%

Q: And the “% Leaf Remaining” value [2, 8]?
A: 55%

Q: And the “% Leaf Remaining” value [2, 9]?
A: < 5%

Q: And the “% Leaf Remaining” value [2, 10]?
A: 42%

Q: What about the “% Leaf Remaining” value [2, 11] of the same molecule?
A: < 5%

Q: With NCC(O)c1cccc(O)c1 (racemic) [(±)-m-octopamine] as the molecule, how does the “Ka^oct /Ka^B ratio” value [1, 4] read?
A: 0.1

Q: What about the “Vmax (% OCT)” value [1, 5] of the same molecule?
A: 9 ± 1 % OCT

Q: And the “effect of adding IBMX on antifeeding / pesticidal activity of the compound” value ([2]; IBMX 0.1%, FIGS. 9, 10, 17, Tables 4, 7, 8, FIG. 9 at 72 hours)?
A: failed to increase pesticidal activity

Q: Which “Ka^oct /Ka^B ratio” value [1, 4] does the source give for COc1cc(C(O)CN)ccc1O (racemic) [(±)-normetanephrine] here?
A: 0.07

Q: And the “Vmax (% OCT)” value [1, 5]?
A: 68 ± 2 % OCT

Q: What does the source list for NCC(O)c1ccccc1O (racemic) [(±)-o-octopamine]?
A: Ka^oct /Ka^B ratio [1, 4]: 0.05; Vmax (% OCT) [1, 5]: 23 ± 1 % OCT

Q: Which results are given for CC(N)Cc1ccc(O)cc1 (racemic) [(±)-p-hydroxyamphetamine]?
A: Ka^oct /Ka^B ratio [1, 4]: < 0.05; Vmax (% OCT) [1, 5]: 8 ± 3 % OCT

Q: How did the “Ka^oct /Ka^B ratio” value [1, 4] turn out when CC(N)C(O)c1ccc(O)cc1 (racemic) [(±)-α-methyloctopamine] was run?
A: 0.05

Q: What about the “Vmax (% OCT)” value [1, 5] of the same molecule?
A: 44 ± 2 % OCT

Q: For CNC(C)C(O)c1ccc(O)cc1 (racemic) [(±)-α-methylsynephrine], which “Ka^oct /Ka^B ratio” value [1, 4] is on record?
A: < 0.01

Q: What about the “Vmax (% OCT)” value [1, 5] of the same molecule?
A: 7 ± 2 % OCT

Q: How did the “Ka^oct /Ka^B ratio” value [1, 4] turn out when C[C@H](N)[C@H](O)c1ccccc1 (relative stereo) [(±)-norephedrine] was run?
A: < 0.09

Q: What about the “Vmax (% OCT)” value [1, 5] of the same molecule?
A: 8 ± 1 % OCT

Q: With NCC(O)c1ccc(Cl)cc1Cl (stereo not shown) [2,4-dichlorophenylethanolamine] as the molecule, how does the “% Leaf Remaining” value [2, 6] read?
A: 80%

Q: What about the “% Leaf Remaining” value [2, 7] of the same molecule?
A: 10%

Q: What about the “% Leaf Remaining” value [2, 8] of the same molecule?
A: 50%

Q: And the “% Leaf Remaining” value [2, 9]?
A: < 5%

Q: What about the “% Leaf Remaining” value [2, 10] of the same molecule?
A: 30%

Q: What about the “% Leaf Remaining” value [2, 11] of the same molecule?
A: < 5%

Q: With CNC[C@H](O)c1ccc(O)c(O)c1 [(-)-epinephrine] as the molecule, how does the “Ka^oct /Ka^B ratio” value [1] read?
A: 0.20

Q: And the “Vmax (% OCT)” value ([1]; light organ homogenate)?
A: 75 ± 2 % OCT

Q: With CC(C)NC[C@H](O)c1ccc(O)c(O)c1 [(-)-isoproterenol] as the molecule, how does the “Vmax (% OCT)” value [1, 5] read?
A: 19 ± 1 % OCT

Q: For NC[C@H](O)c1ccc(O)c(O)c1 [(-)-nonrepinephrine], which “Ka^oct /Ka^B ratio” value [1, 4] is on record?
A: 0.13

Q: And the “Vmax (% OCT)” value [1, 5]?
A: 72 ± 1 % OCT

Q: Which “Vmax (% OCT)” value [1, 5] does the source give for NC[C@H](O)c1ccc(O)cc1 [(-)-p-octopamine] here?
A: 101 ± 2 % OCT

Q: Which results are given for CNC[C@H](O)c1cccc(O)c1 [(-)-phenylephrine]?
A: Ka^oct /Ka^B ratio [1, 4]: < 0.2; Vmax (% OCT) [1, 5]: 17 ± 1 % OCT

Q: How did the Ka ratio [1] turn out when Cc1cc(Cl)ccc1N=CN(C)C [CDM, chlordimeform] was run?
A: 0.5

Q: What about the Vmax [1] of the same molecule?
A: about 10%

Q: What about the “% Living Larvae” value [3, 12] of the same molecule?
A: 2%

Q: And the “% Living Larvae” value [3, 7]?
A: 2%

Q: And the “% Living Larvae” value [3, 13]?
A: 10%

Q: And the “% Living Larvae” value [3, 9]?
A: 25%

Q: And the “% Living Larvae” value [3, 14]?
A: 10%

Q: And the “% Living Larvae” value [3, 11]?
A: 60%

Q: What about the “% Leaf Remaining” value [2, 6] of the same molecule?
A: 90%

Q: What about the “% Leaf Remaining” value [2, 7] of the same molecule?
A: 90%

Q: What about the “% Leaf Remaining” value [2, 8] of the same molecule?
A: 90%

Q: What about the “% Leaf Remaining” value [2, 9] of the same molecule?
A: 70%

Q: And the “% Leaf Remaining” value [2, 10]?
A: 85%

Q: And the “% Leaf Remaining” value [2, 11]?
A: < 5%

Q: And the “% Leaf Remaining” value [2, 15]?
A: 65%

Q: And the “% Leaf Remaining” value [2, 16]?
A: < 5%

Q: What about the “% Leaf Remaining” value [2, 17] of the same molecule?
A: 50%

Q: What about the “% Leaf Remaining” value [2, 18] of the same molecule?
A: < 5%

Q: What does the source list for CNC=Nc1ccc(Cl)cc1C [DCDM, mono-demethylchlordimeform]?
A: more potent than DDCDM against the octopamine receptor [1]: 50%; Ka ratio [1]: 6; Vmax [1]: 76%; % Living Larvae [3, 12]: 2%; % Living Larvae [3, 7]: 2%; % Living Larvae [3, 13]: 3%; % Living Larvae [3, 9]: 50%; % Living Larvae [3, 14]: 10%; % Living Larvae [3, 11]: 50%; % Leaf Remaining [2, 10]: 98%; % Leaf Remaining [2, 11]: 95%; % Leaf Remaining [2, 15]: 90%; % Leaf Remaining [2, 16]: 45%; % Leaf Remaining [2, 17]: 75%; % Leaf Remaining [2, 18]: < 5%

Q: How did the “Ka^oct /Ka^B ratio” value [1, 19] turn out when Clc1ccc(Cl)c(N=C2NCCN2)c1 [NC 2] was run?
A: 1.1

Q: And the Ki ([1]; Table 2, inhibitory properties at the octopamine receptor)?
A: 23 µM

Q: Which “Ka^oct /Ka^B ratio” value [1, 19] does the source give for Clc1cc(Cl)c(N=C2NCCN2)cc1Cl [NC 3] here?
A: 2.8

Q: Cc1cccc(C)c1N=C1NCCN1 [NC 4] was tested. Which “Ka^oct /Ka^B ratio” value [1, 19] did it give?
A: 0.41
